Series [1] deals with T1, human NUDT5 (Homo sapiens, UniProt Q9UKK9).
T1 construct: His-tag (N); made in house; host or cells: E. coli BL21 (DE3) R3 pRARE2
Description: enzyme-coupled malachite green assay (MG assay), ADPR hydrolysis. Type of series: biochemical. To be noted: NUDT5, ADPR substrate; read-out: MG assay IC50 (Biochemical IC50). From the text:
We next sought to develop small molecule NUDT5 inhibitors to further probe the role of NUDT5 in ADPR metabolism. A high-throughput, screening-compatible NUDT5 inhibition assay was established using slight modifications to the aforementioned MG procedure (Fig. 2a)[15],[27]. Briefly, ADPR, NUDT5 and calf intestinal alkaline phosphatase (CIP) were combined in a coupled enzymatic assay, as described in the online methods. In turn, ADPR was hydrolyzed to AMP and R5P by NUDT5, and the released R5P was further degraded to ribose and inorganic phosphate (Pi) by CIP. Free Pi was subsequently detected using the malachite green reagent. The screen was conducted using a combination of the Chemical Biology Consortium of Sweden (CBCS) primary screening set and several commercial libraries from Enamine, TimTec, Maybridge and ChemDiv. In total, ~72 000 distinct chemical entities were screened for their potential inhibition of NUDT5 at a concentration of 10 µM (Supplementary Table 1, Supplementary Fig. 2a, b). Execution of this screening campaign was split between two different occasions. The screening performance in the two screening campaigns was excellent (average z´ factors of 0.87 and 0.85, Supplementary Fig. 2c), resulting in a hit limit as defined by the average and three standard deviations of the library compound responses of 10.1 and 18.4% inhibition, respectively (Supplementary Table 1, Supplementary Fig. 2a, b). This translated to 53 and 475 hits (0.3 and 0.8% hit rate, respectively), yielding 528 total hits from the 2 separate screening occasions.
Activity of NUDT5 and MTH1 with a panel of potential substrates [2-OH-ATP, 2-OH-dATP, 8-oxo-dGDP, GDP and 8-oxo-GTP (Jena Biosciences), 8-oxo-dGTP (TriLink Biotechnologies), dATP (ThermoFisher Scientific), dGTP, GTP and ADPR (Sigma-Aldrich)] was assessed in reaction buffer (100 mM Tris Acetate pH 7.5, 40 mM NaCl, 10 mM Mg Acetate) at 22 °C. For ADPR, alkaline phosphatase from bovine intestinal mucosa (10 U/ml; Sigma-Aldrich) was added as coupled enzyme, while other substrates were coupled to E. coli pyrophosphatase (0.2 U/mL, Sigma-Aldrich). After 30 min incubation with shaking, formed inorganic phosphate was detected by addition of malachite green reagent. Absorbance at 630 nm was read after 15 min incubation with shaking using a Hidex Sense plate reader. The potency of NUDT5 inhibitors was assessed similarly as above (and in the screening campaign) by monitoring ADPR hydrolysis; details are in the Supplementary Information.
Small molecule library composition
The screen for NUDT5 inhibitors was conducted at Chemical Biology Consortium Sweden (www.cbcs.se). Two screening campaigns completed in August 2012 and in March 2013 respectively comprised a combination of in-house and commercially available libraries, amounting to a total of 75679 compounds. The commercial compounds originate from Enamine, TimTec, MayBridge and ChemDiv. The in-house libraries were donated by Biovitrum AB, Sweden (the origin and composition is described previously)2. For long-term storage, the compounds are kept frozen at - 20°C as 10 mM solutions in dimethyl sulfoxide (DMSO) under low humidity conditions in REMP 96 Storage Tube Racks in a REMP Small-Size Store™. To facilitate screening an aliquot of the stock solutions have been transferred to Labcyte 384 LDV plates (LP-0200) to enable dispensing using an Echo 550™ acoustic liquid handler (LabCyte). For both screening campaigns 40 nl of the compound solutions were dispensed directly into columns 1-22 of the 384-well assay plates (Nunc 242757), while columns 23 and 24 were reserved for controls as outlined below. The plates were sealed with a Peelable Aluminium seal (Agilent 24210-001) using a PlateLoc thermal microplate sealer (Agilent) and kept at room temperature until used. The final compound concentration in the screen was 10 µM with a final DMSO concentration of […]
Enzymatic assay applied for screening and hit confirmation […]

Series [2] addresses T2, NUDT5 in HL-60 cell lysates (Homo sapiens, UniProt Q9UKK9).
T2 construct: endogenous in cells; host or cells: HL-60
Nature of the series: cell lysate CETSA (HT-CETSA). The series is classed as binding. Particulars: 20 µM, 83 °C. Here is the method:
Target engagement in cells was determined by the cellular thermal shift assay (CETSA)[29]. Briefly, cell lysate thermal shift assays were performed with 1 × 10^6 HL-60 cells per temperature/condition. Cells were collected and washed once with PBS and resuspended in TBS with protease inhibitor cocktail (Mini cOmplete, EDTA-free, Roche) at 60 µL/1 × 10^6 cells. The cells were then aliquoted and lysed by freeze-thawing three times with 3-min incubations (3x, 3 min.+3 min.) using an ethanol/dry ice bath and water bath at 37 °C. The lysates were then centrifuged at 20,000×g for 20 min at 4 °C to remove cellular debris. Supernatants were then transferred to PCR strip tubes and treated with 0.5 µL DMSO (0.8% v/v final) or 20 µM inhibitor for 20 min at room temperature. Lysates with compounds were heated at the indicated temperature in a Veriti Thermal Cycler (Applied Biosystems) for 3 min, then cooled for another 3 min at room temperature. They were then centrifuged at 20 000 × g for 20 min at 4 °C to pellet protein aggregates and 45 µL was removed and prepared for western blotting analysis.

In series [3] the test system is T47D cells. Nature of the series: cell viability by resazurin. Particulars: 72 h. The series is classed as cell-based. Here is the method: Cell viability was assessed by resazurin[9]. 5000 HL-60 cells (or 1000 U-2 OS/2000 T47D cells) were seeded per well on a 96-well plate. The following morning, compounds (or the equivalent amount of DMSO) were added to obtain the final concentrations indicated and the cells were incubated at 37 °C for 72 h with resazurin added at 0.02 mg/mL for the last 2–6 h. Resorufin fluorescence was detected at […] with a Hidex Sense fluorescent plate reader. Viability curves were fit using the sigmoidal dose-response (variable slope) function in GraphPad Prism 7.
A general note: Alamar Blue is a resazurin reagent that responds to reducing activity.

The test system of series [4] is nuclear ATP production in T47D^WT cells. Nature of the series: nuclear ATP visualization by bioluminescence (Nuc-luc reporter) after R5020. The series is classed as cell-based. Particulars: 10 nM R5020. How it is done: For hormone and inhibitor treatments, normal T47D^WT cells or cells containing a single copy of luciferase under the control of the mouse mammary tumor virus (MMTV) promoter (T47D^M) were used[23]. Prior to hormone induction, cells were grown in phenol red-free RPMI medium supplemented with 10% dextran-coated charcoal-treated FBS (DCC/FBS). After 16 h in serum-free conditions, cells were pre-incubated with DMSO (vehicle) or NUDT5 inhibitor for 2 h at the indicated dose before addition of R5020 (10 nM) or vehicle (ethanol, EtOH) for the allotted time.
T47D^WT cells were seeded in RPMI in black-walled 96-well plates and transfected using Lipofectamine 2000® (Invitrogen, manufacturer’s instructions) with the nuclear-targeted luciferase constructs (Nuc-luc FRTTO[53]) at a final concentration of 50 ng DNA/well for 48 h. 16 h prior to hormone (R5020, 10 nM) exposure, cells were synchronized by serum starvation. Bioluminescence was activated by addition of 100 µl D-luciferin (1 mg/mL water, Sigma) and ATP was quantified using an IVIS system (Xenogen Corp).

This note sets out measurements from PMC5772648, “Targeted NUDT5 inhibitors block hormone signaling in breast cancer cells” (Nature Communications, 2018).

Structures are written as SMILES. Values joined by “and” are separate entries in the source; they are usually repeats but may differ in a detail not shown here. Identical values can stand only once.

As a reminder, the IC50 is the concentration needed to halve the response being measured.

As to `Cn1c(=O)c2c(nc(N3CCNCC3)n2Cc2nnc(-c3ccc(Cl)c(Cl)c3)o2)n(C)c1=O` [TH5427], in series [1], the IC50 was 29.1 nM and 29 nM. Further, in series [2], the “NUDT5 stabilization in cell lysates” value is “showed the most stabilization of NUDT5 in cell lysates”. The “toxicity in T47D cells” value in series [3] is on record as “generally non-toxic when used below 20 µM”. For the same compound, the “nuclear luminescence (nuclear ATP) after R5020” value in series [4] (1.5 µM) is listed as “marked reduction in nuclear luminescence”.

For `CCN1CCN(c2nc3c(c(=O)n(C)c(=O)n3C)n2Cc2nnc(-c3ccc(Cl)c(Cl)c3)o2)CC1` [TH5424], the IC50 in series [1] worked out at 39 nM. For the same compound, the “NUDT5 stabilization in cell lysates” value in series [2] is recorded as “showed the most stabilization of NUDT5 in cell lysates”. Also, the “toxicity in T47D cells” value in series [3] was “generally non-toxic when used below 20 µM”. Besides, in series [4] (15 µM), the “nuclear luminescence (nuclear ATP) after R5020” value is on record as “strong luminescence was observed”.
